Source: patent publication US7951782B2, “Composition effective to prevent or treat adult disease” (Maruha Nichiro Seafoods, Inc, priority 2005, dated 2011)
Residues, ends and D or L forms follow the SMILES beside them. No end group written: not given here.

Tests used:
[1] = Solubility of synthesized polypeptides
Experimental: Twenty-four polypeptides contained in the alcalase-digested, reverse phase column fraction of the basic fraction were synthesized in yields of 10 to 300 mg in the same manner as described in Example 7 and their characteristic values were determined.

[2] = target: T1, xanthine oxidase (XO) of cow's milk (Bos taurus, UniProt P80457); assay: Uric acid synthetase inhibitory activity of peptides that are part of SEQ ID No. 1; type: biochemical; conditions: 15 μM xanthine, 50 mM tris-HCl pH 7.4, 37° C., 10 minutes
T1 construct: xanthine oxidase (XO) of cow's milk (from Wako Pure Chemical); purchased Wako Pure Chemical; host or cells: cow's milk (natural source)
T1 sequence (P80457 whole entry): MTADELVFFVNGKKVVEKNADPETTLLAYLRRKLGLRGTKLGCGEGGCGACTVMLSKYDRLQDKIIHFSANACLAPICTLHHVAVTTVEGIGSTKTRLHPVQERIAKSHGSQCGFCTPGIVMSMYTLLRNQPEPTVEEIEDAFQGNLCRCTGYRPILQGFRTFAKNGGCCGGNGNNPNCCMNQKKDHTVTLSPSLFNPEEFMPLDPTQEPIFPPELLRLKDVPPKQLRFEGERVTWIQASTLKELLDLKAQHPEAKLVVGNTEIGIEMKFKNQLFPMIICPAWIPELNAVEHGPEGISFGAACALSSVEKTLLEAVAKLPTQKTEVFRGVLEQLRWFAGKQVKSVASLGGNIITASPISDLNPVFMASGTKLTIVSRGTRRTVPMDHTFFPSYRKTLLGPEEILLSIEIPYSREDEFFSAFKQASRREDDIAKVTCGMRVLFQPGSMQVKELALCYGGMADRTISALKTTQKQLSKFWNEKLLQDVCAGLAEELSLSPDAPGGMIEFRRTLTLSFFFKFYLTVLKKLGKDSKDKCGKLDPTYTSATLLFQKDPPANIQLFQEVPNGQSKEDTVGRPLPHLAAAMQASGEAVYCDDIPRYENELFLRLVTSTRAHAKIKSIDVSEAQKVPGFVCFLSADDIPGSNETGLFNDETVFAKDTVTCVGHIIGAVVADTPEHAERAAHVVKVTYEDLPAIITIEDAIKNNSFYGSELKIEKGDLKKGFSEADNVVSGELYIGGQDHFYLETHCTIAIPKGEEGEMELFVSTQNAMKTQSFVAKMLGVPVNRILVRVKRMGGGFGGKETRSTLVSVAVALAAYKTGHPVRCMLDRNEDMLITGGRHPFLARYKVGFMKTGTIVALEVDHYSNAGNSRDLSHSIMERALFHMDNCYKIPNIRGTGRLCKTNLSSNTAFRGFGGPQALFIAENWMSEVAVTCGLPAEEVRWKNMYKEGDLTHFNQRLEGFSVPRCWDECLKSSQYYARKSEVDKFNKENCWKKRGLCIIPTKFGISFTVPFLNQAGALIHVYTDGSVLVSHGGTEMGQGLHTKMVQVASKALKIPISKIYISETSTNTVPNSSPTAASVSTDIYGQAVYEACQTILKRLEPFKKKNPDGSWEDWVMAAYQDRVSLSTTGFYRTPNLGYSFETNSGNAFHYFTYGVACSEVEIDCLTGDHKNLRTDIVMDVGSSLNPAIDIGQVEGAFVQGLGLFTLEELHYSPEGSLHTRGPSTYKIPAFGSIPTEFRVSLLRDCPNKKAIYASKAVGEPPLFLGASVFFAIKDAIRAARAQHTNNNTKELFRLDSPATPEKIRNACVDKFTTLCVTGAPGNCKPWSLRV
Experimental: Each of the peptides synthesized was added to 1 ml of a 50 mM tris-HCl buffer (pH 7.4) containing 15 μM xanthine as an enzyme substrate to prepare a reaction system. To the reaction system was added 0.1 unit (containing 100 μl of 25 units/25 ml enzyme solution) of xanthine oxidase (XO) of cow's milk (from Wako Pure Chemical), followed by allowing the system to react at 37° C. for 10 minutes. The amount of uric acid produced from xanthine by the action of xanthine oxidase was evaluated in terms of changes in optical density (OD, at 292 nm), from which the enzyme activity was calculated from formula previously given.

[3] = target: T2, xanthine oxidase (XO) from butter milk (Bos taurus, UniProt P80457); assay: Uric acid synthetase inhibitory activity of polypeptides (YINY, YNL, GYL, INF); type: biochemical; conditions: 15 μM xanthine, pH 7.4, 37° C., 10 minutes
T2 construct: xanthine oxidase (XO) from butter milk (from Wako Pure Chemical); purchased Wako Pure Chemical; host or cells: butter milk (natural source)
T2 sequence (P80457 whole entry): as above
Experimental: A polypeptide having SEQ ID No. 2 (YINY), which is contained in the enzyme-digested reverse-phase column fraction of the basic fraction of a shark cartilage extract, was synthesized in the same manner as in Example 7 and added to 200 μl of a 50 mM tris-HCl buffer (pH 7.4) containing 15 μM xanthine as an enzyme substrate to prepare a reaction system. To the reaction system was added 0.1 unit (containing 1 μl of 10 units/100 μl enzyme solution) of xanthine oxidase (XO) from butter milk (from Wako Pure Chemical), followed by allowing the system to react at 37° C. for 10 minutes. The amount of uric acid produced from xanthine by the action of xanthine oxidase was evaluated in terms of changes in optical density (OD, at 292 nm), from which the enzyme activity was calculated from formula previously given.
Polypeptides YNL, GYL, and INF which are contained in the enzyme-digested reverse-phase column fraction of the basic fraction of a shark cartilage extract were synthesized in the same manner as in Example 7 and added to 200 μl of a 50 mM tris-HCl buffer (pH 7.4) containing 15 μM xanthine as an enzyme substrate to prepare a reaction system. […] The amount of uric acid produced from xanthine by the action of xanthine oxidase was evaluated in terms of changes in optical density (OD, at 292 nm), from which the enzyme activity was calculated from formula previously given. […]

| Molecule | Solubility ([1]; in water (H2O)) | also measured |
| --- | --- | --- |
| N=C(N)NCCC[C@H](N)C(=O)N[C@@H](Cc1ccc(O)cc1)C(=O)N[C@@H](Cc1ccccc1)C(=O)O [Arg-Tyr-Phe] (H-Arg-Tyr-Phe-OH; N-terminus and C-terminus assumed) | 1 mg/ml in H2O | – |
| NC(=O)C[C@H](NC(=O)[C@@H](N)CC(=O)O)C(=O)O [DN] (H-Asp-Asn-OH; N-terminus and C-terminus assumed) | – | xanthine oxidase activity in system containing the peptide [2]: inhibited |
| CC(C)C[C@H](NC(=O)[C@H](Cc1ccc(O)cc1)NC(=O)CN)C(=O)O [GYL, Gly-Tyr-Leu] (H-Gly-Tyr-Leu-OH; N-terminus and C-terminus assumed) | 1 mg/ml in H2O | – |
| CC(C)C[C@H](NC(=O)[C@H](Cc1ccccc1)NC(=O)CN)C(=O)O [Gly-Phe-Leu] (H-Gly-Phe-Leu-OH; N-terminus and C-terminus assumed) | – | Solubility ([1]; in 10% Acetonitrile in water): 1 mg/ml in 10% |
| CC[C@H](C)[C@H](N)C(=O)N[C@@H](CC(N)=O)C(=O)N[C@@H](Cc1ccccc1)C(=O)O [INF, Ile-Asn-Phe] (H-Ile-Asn-Phe-OH; N-terminus and C-terminus assumed) | 1 mg/ml in H2O | – |
| CC[C@H](C)[C@H](N)C(=O)N[C@@H](CC(N)=O)C(=O)N[C@@H](Cc1ccc(O)cc1)C(=O)O [Ile-Asn-Tyr] (H-Ile-Asn-Tyr-OH; N-terminus and C-terminus assumed) | – | Solubility ([1]; in 5% NH4OH with H2O): 1 mg/ml in 5% NH4OH |
| CC[C@H](C)[C@H](N)C(=O)N[C@@H](Cc1ccc(O)cc1)C(=O)N[C@@H](CC(C)C)C(=O)O [Ile-Tyr-Leu] (H-Ile-Tyr-Leu-OH; N-terminus and C-terminus assumed) | – | Solubility ([1]; in 10% Acetonitrile in water): 1 mg/ml in 10% in |
| CC(C)C[C@H](N)C(=O)N[C@@H](CC(=O)O)C(=O)N[C@@H](CC(N)=O)C(=O)N[C@@H](Cc1ccc(O)cc1)C(=O)O [LDNY, Leu-Asp-Asn-Tyr] (H-LDNY-OH; N-terminus and C-terminus assumed) | 1 mg/ml in water | xanthine oxidase activity in system containing the peptide [2]: inhibited |
| CC(C)C[C@H](N)C(=O)N[C@@H](CC(=O)O)C(=O)O [LD] (H-Leu-Asp-OH; N-terminus and C-terminus assumed) | – | xanthine oxidase activity in system containing the peptide [2]: inhibited |
| CC(C)C[C@H](N)C(=O)N[C@@H](Cc1ccccc1)C(=O)O [Leu-Phe] (H-Leu-Phe-OH; N-terminus and C-terminus assumed) | 1 mg/ml in H2O | – |
| N[C@@H](Cc1ccccc1)C(=O)N[C@@H](Cc1ccc(O)cc1)C(=O)O [Phe-Tyr] (H-Phe-Tyr-OH; N-terminus and C-terminus assumed) | 1 mg/ml in H2O | – |
| NC(=O)CC[C@H](NC(=O)[C@H](Cc1c[nH]c2ccccc12)NC(=O)[C@H](CC(N)=O)NC(=O)[C@@H](N)CO)C(=O)O [Ser-Asn-Trp-Gln] (H-SNWQ-OH; N-terminus and C-terminus assumed) | 1 mg/ml in H2O | – |
| CC[C@H](C)[C@H](NC(=O)[C@@H](N)CO)C(=O)N[C@@H](Cc1ccc(O)cc1)C(=O)N[C@@H](CC(=O)O)C(=O)O [Ser-Ile-Tyr-Asp] (H-SIYD-OH; N-terminus and C-terminus assumed) | – | Solubility ([1]; in 5% NH4OH with H2O): 1 mg/ml in 5% NH4OH |
| CC(C)C[C@H](NC(=O)[C@@H](N)CO)C(=O)O [Ser-Leu] (H-Ser-Leu-OH; N-terminus and C-terminus assumed) | 1 mg/ml in water | – |
| CC(C)[C@H](N)C(=O)N[C@@H](CCC(=O)O)C(=O)N[C@@H](Cc1ccc(O)cc1)C(=O)N[C@@H](Cc1ccccc1)C(=O)O [Val-Gln-Tyr-Phe] | 1 mg/ml in water | – |
| CC(C)[C@H](N)C(=O)N[C@@H](Cc1ccc(O)cc1)C(=O)N[C@@H](CCC(N)=O)C(=O)O [Val-Tyr-Gln] (H-Val-Tyr-Gln-OH; N-terminus and C-terminus assumed) | 1 mg/ml in H2O | – |
| CC[C@H](C)[C@H](NC(=O)[C@@H](N)Cc1ccc(O)cc1)C(=O)N[C@@H](CC(N)=O)C(=O)N[C@@H](Cc1ccc(O)cc1)C(=O)O [YINY, Try-Ile-Asn-Tyr] (H-YINY-OH; N-terminus and C-terminus assumed) | – | Solubility ([1]; in 5% NH4OH with H2O): 1 mg/ml in 5% NH4OH; xanthine oxidase activity in system containing the polypeptide [3]: inhibited |
| CC(C)C[C@H](NC(=O)[C@@H](N)Cc1ccc(O)cc1)C(=O)N[C@@H](CC(=O)O)C(=O)N[C@@H](CC(N)=O)C(=O)O [YLDN, Tyr-Leu-Asp-Asn] (H-YLDN-OH; N-terminus and C-terminus assumed) | 1 mg/ml in water | xanthine oxidase activity in system containing the peptide [2]: inhibited |
| CC(C)C[C@H](NC(=O)[C@H](CC(N)=O)NC(=O)[C@@H](N)Cc1ccc(O)cc1)C(=O)O [YNL, Tyr-Asn-Leu] (H-Tyr-Asn-Leu-OH; N-terminus and C-terminus assumed) | 1 mg/ml in H2O | – |
| DFWRY [Asp-Phe-Trp-Arg-Tyr] | 1 mg/ml in water | – |
| SPPYWPY [SPPYWPY, Ser-Pro-Pro-Tyr-Trp-Pro-Tyr] | 1 mg/ml in water | – |
| YLDNY [YLDNY, Tyr-Leu-Asp-Asn-Tyr] | – | Solubility ([1]; in 10% Acetonitrile in water): 1 mg/ml in 10% |
